# Results taken from ChEMBL document CHEMBL1144685, “Naphthamides as novel and potent vascular endothelial growth factor receptor tyrosine kinase inhibitors: design, synthesis, and evaluation” (J Med Chem, 2008).
# What was measured:
# [1] = Volume of distribution at steady state in dog at 1 mg/kg, iv; type: ADME, organism-based, Canis lupus familiaris; set-up: dose 1 mg/kg, route intravenous; conditions: in vivo, read-out: Vdss
# [2] = Clearance in cynomolgus monkey at 1 mg/kg, iv; type: ADME, organism-based, Macaca fascicularis; set-up: dose 1 mg/kg, route intravenous; conditions: in vivo
# [3] = Volume of distribution at steady state in cynomolgus monkey at 1 mg/kg, iv; type: ADME, organism-based, Macaca fascicularis; set-up: dose 1 mg/kg, route intravenous; conditions: in vivo, read-out: Vdss
# [4] = Oral bioavailability in dog at 10 mg/kg; type: ADME, organism-based, Canis lupus familiaris; conditions: in vivo
# [5] = Mean retention time in cynomolgus monkey at 1 mg/kg, iv; type: ADME, organism-based, Macaca fascicularis; set-up: dose 1 mg/kg, route intravenous; conditions: in vivo
# [6] = Oral bioavailability in mouse at 10 mg/kg, po; type: ADME, organism-based; conditions: in vivo
# [7] = Volume of distribution at steady state in mouse at 3 mg/kg, iv; type: ADME, organism-based; set-up: dose 3 mg/kg, route intravenous; conditions: in vivo, read-out: Vdss
# [8] = Half life in cynomolgus monkey at 1 mg/kg, iv; type: ADME, organism-based, Macaca fascicularis; set-up: dose 1 mg/kg, route intravenous; conditions: in vivo
# [9] = Oral bioavailability in cynomolgus monkey at 10 mg/kg, po; type: ADME, organism-based, Macaca fascicularis; conditions: in vivo
# [10] = Mean retention time in dog at 1 mg/kg, iv; type: ADME, organism-based, Canis lupus familiaris; set-up: dose 1 mg/kg, route intravenous; conditions: in vivo
# [11] = Mean retention time in mouse at 3 mg/kg, iv; type: ADME, organism-based; set-up: dose 3 mg/kg, route intravenous; conditions: in vivo
# [12] = Clearance in dog at 1 mg/kg, iv; type: ADME, organism-based, Canis lupus familiaris; set-up: dose 1 mg/kg, route intravenous; conditions: in vivo
# [13] = Half life in dog at 1 mg/kg, iv; type: ADME, organism-based, Canis lupus familiaris; set-up: dose 1 mg/kg, route intravenous; conditions: in vivo
# [14] = Clearance in mouse at 3 mg/kg, iv; type: ADME, organism-based; set-up: dose 3 mg/kg, route intravenous; conditions: in vivo
# [15] = Half life in mouse at 3 mg/kg, iv; type: ADME, organism-based; set-up: dose 3 mg/kg, route intravenous; conditions: in vivo
# [16] = Cmax in human HT29 cell xenografted CD1 nu/nu mouse at 30 mg/kg, po; type: ADME, organism-based, HT-29; set-up: dose 30 mg/kg, route oral; conditions: in vivo
# [17] = target: Vascular endothelial growth factor receptor 1 (Homo sapiens, UniProt P17948)
# Sequence of Vascular endothelial growth factor receptor 1 (P17948 whole entry): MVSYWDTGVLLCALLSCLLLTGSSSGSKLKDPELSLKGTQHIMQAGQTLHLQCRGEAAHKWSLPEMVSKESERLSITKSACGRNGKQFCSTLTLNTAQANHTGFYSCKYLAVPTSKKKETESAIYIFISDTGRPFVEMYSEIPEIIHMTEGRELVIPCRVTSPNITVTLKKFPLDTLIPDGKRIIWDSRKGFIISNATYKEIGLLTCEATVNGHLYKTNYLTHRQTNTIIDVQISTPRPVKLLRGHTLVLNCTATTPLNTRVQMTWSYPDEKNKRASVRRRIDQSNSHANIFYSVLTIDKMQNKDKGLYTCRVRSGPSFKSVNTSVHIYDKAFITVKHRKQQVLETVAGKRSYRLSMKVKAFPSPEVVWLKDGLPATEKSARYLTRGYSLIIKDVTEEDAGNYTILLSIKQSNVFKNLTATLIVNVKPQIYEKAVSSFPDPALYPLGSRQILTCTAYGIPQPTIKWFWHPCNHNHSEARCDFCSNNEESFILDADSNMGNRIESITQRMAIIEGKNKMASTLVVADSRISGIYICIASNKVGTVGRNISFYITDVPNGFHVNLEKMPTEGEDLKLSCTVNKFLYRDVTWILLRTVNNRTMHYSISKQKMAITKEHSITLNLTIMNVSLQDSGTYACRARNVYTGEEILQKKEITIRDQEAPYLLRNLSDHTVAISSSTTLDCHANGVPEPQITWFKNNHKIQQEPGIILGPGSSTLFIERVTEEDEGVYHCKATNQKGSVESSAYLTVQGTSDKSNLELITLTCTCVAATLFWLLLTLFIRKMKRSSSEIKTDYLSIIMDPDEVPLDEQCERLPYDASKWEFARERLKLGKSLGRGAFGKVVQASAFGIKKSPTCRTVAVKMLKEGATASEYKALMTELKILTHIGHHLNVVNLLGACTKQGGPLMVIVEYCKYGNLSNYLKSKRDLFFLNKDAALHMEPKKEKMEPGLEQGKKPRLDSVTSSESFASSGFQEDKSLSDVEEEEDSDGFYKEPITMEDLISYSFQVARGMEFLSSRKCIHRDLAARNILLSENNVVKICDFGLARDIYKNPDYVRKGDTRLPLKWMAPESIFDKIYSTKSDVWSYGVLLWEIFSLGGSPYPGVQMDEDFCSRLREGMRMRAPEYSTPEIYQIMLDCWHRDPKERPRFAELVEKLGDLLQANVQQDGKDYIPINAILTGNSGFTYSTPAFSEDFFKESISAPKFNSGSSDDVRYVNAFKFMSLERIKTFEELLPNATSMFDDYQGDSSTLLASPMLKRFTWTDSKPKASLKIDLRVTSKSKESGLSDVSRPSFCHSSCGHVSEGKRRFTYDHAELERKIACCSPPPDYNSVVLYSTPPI
# [18] = Protein binding in mouse plasma; type: ADME, cell-free; conditions: read-out: PPB (converted)
# [19] = test system: Rattus norvegicus; assay: Inhibition of VEGF-induced angiogenesis in VEGF soaked disk implanted Sprague-Dawley rat cornea assessed as number of blood vessels intersecting the midpoint between the disk and limbus after 7 days; type: functional; conditions: 168 h
# [20] = test system: Plasma; assay: Plasma concentration in BALB/c mouse at 30 mg/kg, po; type: ADME, organism-based; set-up: dose 30 mg/kg, route oral; conditions: in vivo
# [21] = test system: Mus musculus; assay: Antitumor activity against human HT29 cell xenografted CD1 nu/nu mouse assessed as inhibition of tumor growth at 3 mg/kg, po; type: functional; conditions: CD1, HT-29
# [22] = target: Cytochrome P450 3A4 (Homo sapiens, UniProt P08684)
# Sequence of Cytochrome P450 3A4 (P08684 whole entry): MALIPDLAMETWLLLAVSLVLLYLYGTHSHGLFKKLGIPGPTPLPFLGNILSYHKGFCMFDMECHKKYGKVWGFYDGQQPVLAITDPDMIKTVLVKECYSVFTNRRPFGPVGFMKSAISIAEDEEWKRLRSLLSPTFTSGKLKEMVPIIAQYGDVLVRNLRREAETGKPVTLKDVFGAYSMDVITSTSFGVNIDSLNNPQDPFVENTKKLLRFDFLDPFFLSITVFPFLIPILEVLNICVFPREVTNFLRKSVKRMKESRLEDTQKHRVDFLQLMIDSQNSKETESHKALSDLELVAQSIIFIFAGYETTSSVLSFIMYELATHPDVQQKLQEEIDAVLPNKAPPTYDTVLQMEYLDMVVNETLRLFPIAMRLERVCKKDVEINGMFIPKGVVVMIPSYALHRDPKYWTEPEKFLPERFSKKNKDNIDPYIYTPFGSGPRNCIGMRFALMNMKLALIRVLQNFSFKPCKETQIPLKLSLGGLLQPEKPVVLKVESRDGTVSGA
# [23] = Cmax in human HT29 cell xenografted CD1 nu/nu mouse at 3 mg/kg, po; type: ADME, organism-based, HT-29; set-up: dose 3 mg/kg, route oral; conditions: in vivo
# [24] = target: Macrophage colony-stimulating factor 1 receptor (Homo sapiens, UniProt P07333); assay: Inhibition of c-FMS
# [25] = Protein binding in rat plasma; type: ADME, cell-free; conditions: read-out: PPB (converted)
# [26] = Mean retention time in Sprague-Dawley rat at 2 mg/kg, iv; type: ADME, organism-based; set-up: dose 2 mg/kg, route intravenous; conditions: in vivo
# [27] = target: Cytochrome P450 2D6 (Homo sapiens, UniProt P10635)
# [28] = test system: Plasma; assay: Plasma concentration in BALB/c mouse at 10 mg/kg, po; type: ADME, organism-based; set-up: dose 10 mg/kg, route oral; conditions: in vivo
# [29] = AUC (0 to 24 hrs) in human HT29 cell xenografted CD1 nu/nu mouse at 30 mg/kg, po; type: ADME, organism-based, HT-29; set-up: time < 24 hr, dose 30 mg/kg, route oral; conditions: in vivo
# [30] = Cmax in Sprague-Dawley rat at 5 mg/kg, po; type: ADME, organism-based; set-up: dose 5 mg/kg, route oral; conditions: in vivo
# [31] = Intrinsic clearance in human liver microsomes; type: ADME, Microsome
# [32] = test system: HUVEC; assay: cells; conditions: Homo sapiens
# Description: Inhibition of bFGF-induced proliferation of HUVEC cells
# [33] = target: Serine/threonine-protein kinase B-raf (Homo sapiens, UniProt P15056, V600E); assay: Inhibition of b-Raf V600E
# Sequence of Serine/threonine-protein kinase B-raf (P15056 2-766 V600E limits assumed): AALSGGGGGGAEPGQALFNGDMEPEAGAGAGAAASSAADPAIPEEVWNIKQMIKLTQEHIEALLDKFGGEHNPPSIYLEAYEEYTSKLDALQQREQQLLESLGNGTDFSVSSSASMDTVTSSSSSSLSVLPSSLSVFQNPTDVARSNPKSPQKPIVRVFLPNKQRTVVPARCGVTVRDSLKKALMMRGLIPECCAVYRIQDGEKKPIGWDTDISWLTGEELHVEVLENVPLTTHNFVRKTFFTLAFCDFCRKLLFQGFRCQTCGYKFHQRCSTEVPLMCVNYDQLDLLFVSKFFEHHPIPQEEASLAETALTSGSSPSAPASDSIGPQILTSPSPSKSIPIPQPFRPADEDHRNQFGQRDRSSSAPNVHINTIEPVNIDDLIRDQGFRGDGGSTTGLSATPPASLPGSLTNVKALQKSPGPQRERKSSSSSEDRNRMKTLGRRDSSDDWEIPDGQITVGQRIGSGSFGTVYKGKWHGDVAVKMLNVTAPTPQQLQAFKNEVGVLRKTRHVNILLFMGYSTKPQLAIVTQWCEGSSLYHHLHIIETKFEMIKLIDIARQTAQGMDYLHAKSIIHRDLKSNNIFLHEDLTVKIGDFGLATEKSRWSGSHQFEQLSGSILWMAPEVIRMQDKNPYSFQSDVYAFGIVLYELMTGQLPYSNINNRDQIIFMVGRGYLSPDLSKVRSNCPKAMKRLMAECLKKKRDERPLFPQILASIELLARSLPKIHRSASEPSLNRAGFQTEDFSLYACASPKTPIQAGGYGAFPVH
# [34] = AUC (0 to 24 hrs) in Sprague-Dawley rat at 5 mg/kg, po; type: ADME, organism-based; set-up: time < 24 hr, dose 5 mg/kg, route oral; conditions: plasma
# [35] = test system: Liver microsomes; assay: Metabolic stability assessed as covalent binding in human liver microsomes; type: ADME, Microsome
# [36] = test system: Plasma; assay: Plasma concentration in BALB/c mouse at 3 mg/kg, po; type: ADME, organism-based; set-up: dose 3 mg/kg, route oral; conditions: in vivo
# [37] = AUC (0 to 24 hrs) in human HT29 cell xenografted CD1 nu/nu mouse at 3 mg/kg, po; type: ADME, organism-based, HT-29; set-up: time < 24 hr, dose 3 mg/kg, route oral; conditions: in vivo
# [38] = Intrinsic clearance in rat liver microsomes; type: ADME, Microsome
# [39] = test system: Plasma; assay: Plasma concentration in CD1 nu/nu mouse at 30 mg/kg, po; type: ADME, organism-based; set-up: dose 30 mg/kg, route oral; conditions: in vivo
# [40] = target: Aurora kinase B (Homo sapiens, UniProt Q96GD4); assay: Inhibition of Aurora B
# [41] = Half life in Sprague-Dawley rat at 2 mg/kg, iv; type: ADME, organism-based; set-up: dose 2 mg/kg, route intravenous; conditions: in vivo
# [42] = AUC in VEGF soaked disk implanted Sprague-Dawley rat; type: ADME, organism-based; conditions: plasma
# [43] = test system: NHDF; assay: Inhibition of PDGF-induced proliferation of NHDF cells; type: functional, cell-based; conditions: Homo sapiens
# [44] = target: Tyrosine-protein kinase Lck (Homo sapiens, UniProt P06239)
# [45] = Inhibition of Erk phosphorylation in human A375 cells; type: cell-based; conditions: A-375
# [46] = Cmax in human HT29 cell xenografted CD1 nu/nu mouse at 10 mg/kg, po; type: ADME, organism-based, HT-29; set-up: dose 10 mg/kg, route oral; conditions: in vivo
# [47] = Inhibition of anti-CD3-induced proliferation of human T cells; type: functional, cell-based; conditions: T-cell
# [48] = Volume of distribution at steady state in Sprague-Dawley rat at 2 mg/kg, iv; type: ADME, organism-based; set-up: dose 2 mg/kg, route intravenous; conditions: in vivo, read-out: Vdss
# [49] = Protein binding in dog plasma; type: ADME, cell-free, Canis lupus familiaris; conditions: read-out: PPB (converted)
# [50] = Clearance in Sprague-Dawley rat at 2 mg/kg, iv; type: ADME, organism-based; set-up: dose 2 mg/kg, route intravenous; conditions: in vivo
# [51] = test system: HUVEC; assay: Inhibition of FGF-induced proliferation of HUVEC cells; type: functional, cell-based; conditions: Homo sapiens
# [52] = AUC (0 to 24 hrs) in human HT29 cell xenografted CD1 nu/nu mouse at 10 mg/kg, po; type: ADME, organism-based, HT-29; set-up: time < 24 hr, dose 10 mg/kg, route oral; conditions: in vivo
# [53] = target: Fibroblast growth factor receptor 2 (Homo sapiens, UniProt P21802); assay: Inhibition of FGFR2
# Sequence of Fibroblast growth factor receptor 2 (P21802 whole entry): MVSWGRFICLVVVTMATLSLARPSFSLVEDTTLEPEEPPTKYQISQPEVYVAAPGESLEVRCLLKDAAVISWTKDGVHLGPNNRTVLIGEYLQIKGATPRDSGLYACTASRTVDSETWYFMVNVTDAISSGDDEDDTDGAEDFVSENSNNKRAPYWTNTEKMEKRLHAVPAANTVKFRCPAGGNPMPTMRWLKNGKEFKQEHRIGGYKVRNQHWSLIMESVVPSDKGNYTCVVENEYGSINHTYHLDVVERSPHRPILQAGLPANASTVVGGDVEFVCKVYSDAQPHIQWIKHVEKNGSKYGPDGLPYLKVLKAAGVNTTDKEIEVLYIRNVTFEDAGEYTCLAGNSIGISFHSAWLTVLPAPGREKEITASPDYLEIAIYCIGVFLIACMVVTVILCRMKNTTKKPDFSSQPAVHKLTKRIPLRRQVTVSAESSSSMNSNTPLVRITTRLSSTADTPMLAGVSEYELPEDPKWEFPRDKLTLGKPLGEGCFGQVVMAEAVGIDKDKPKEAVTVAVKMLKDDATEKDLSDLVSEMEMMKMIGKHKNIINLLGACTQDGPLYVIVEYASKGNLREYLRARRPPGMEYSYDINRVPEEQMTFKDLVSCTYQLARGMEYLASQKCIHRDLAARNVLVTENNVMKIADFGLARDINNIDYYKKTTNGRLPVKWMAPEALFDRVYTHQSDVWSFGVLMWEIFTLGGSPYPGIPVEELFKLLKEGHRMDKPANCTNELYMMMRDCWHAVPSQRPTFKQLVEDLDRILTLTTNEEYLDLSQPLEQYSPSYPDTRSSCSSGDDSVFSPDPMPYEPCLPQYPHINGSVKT
# [54] = test system: Plasma; assay: Plasma concentration in CD1 nu/nu mouse at 100 mg/kg, po; type: ADME, organism-based; set-up: dose 100 mg/kg, route oral; conditions: in vivo
# [55] = Inhibition of histone H3 phosphorylation in human HeLa cells; type: cell-based
# [56] = test system: NIH3T3; assay: Inhibition of CSF1-induced proliferation of BALB/c mouse 3T3 cells; type: functional, cell-based
# [57] = target: Vascular endothelial growth factor receptor 3 (Homo sapiens, UniProt P35916)
# Sequence of Vascular endothelial growth factor receptor 3 (P35916 whole entry): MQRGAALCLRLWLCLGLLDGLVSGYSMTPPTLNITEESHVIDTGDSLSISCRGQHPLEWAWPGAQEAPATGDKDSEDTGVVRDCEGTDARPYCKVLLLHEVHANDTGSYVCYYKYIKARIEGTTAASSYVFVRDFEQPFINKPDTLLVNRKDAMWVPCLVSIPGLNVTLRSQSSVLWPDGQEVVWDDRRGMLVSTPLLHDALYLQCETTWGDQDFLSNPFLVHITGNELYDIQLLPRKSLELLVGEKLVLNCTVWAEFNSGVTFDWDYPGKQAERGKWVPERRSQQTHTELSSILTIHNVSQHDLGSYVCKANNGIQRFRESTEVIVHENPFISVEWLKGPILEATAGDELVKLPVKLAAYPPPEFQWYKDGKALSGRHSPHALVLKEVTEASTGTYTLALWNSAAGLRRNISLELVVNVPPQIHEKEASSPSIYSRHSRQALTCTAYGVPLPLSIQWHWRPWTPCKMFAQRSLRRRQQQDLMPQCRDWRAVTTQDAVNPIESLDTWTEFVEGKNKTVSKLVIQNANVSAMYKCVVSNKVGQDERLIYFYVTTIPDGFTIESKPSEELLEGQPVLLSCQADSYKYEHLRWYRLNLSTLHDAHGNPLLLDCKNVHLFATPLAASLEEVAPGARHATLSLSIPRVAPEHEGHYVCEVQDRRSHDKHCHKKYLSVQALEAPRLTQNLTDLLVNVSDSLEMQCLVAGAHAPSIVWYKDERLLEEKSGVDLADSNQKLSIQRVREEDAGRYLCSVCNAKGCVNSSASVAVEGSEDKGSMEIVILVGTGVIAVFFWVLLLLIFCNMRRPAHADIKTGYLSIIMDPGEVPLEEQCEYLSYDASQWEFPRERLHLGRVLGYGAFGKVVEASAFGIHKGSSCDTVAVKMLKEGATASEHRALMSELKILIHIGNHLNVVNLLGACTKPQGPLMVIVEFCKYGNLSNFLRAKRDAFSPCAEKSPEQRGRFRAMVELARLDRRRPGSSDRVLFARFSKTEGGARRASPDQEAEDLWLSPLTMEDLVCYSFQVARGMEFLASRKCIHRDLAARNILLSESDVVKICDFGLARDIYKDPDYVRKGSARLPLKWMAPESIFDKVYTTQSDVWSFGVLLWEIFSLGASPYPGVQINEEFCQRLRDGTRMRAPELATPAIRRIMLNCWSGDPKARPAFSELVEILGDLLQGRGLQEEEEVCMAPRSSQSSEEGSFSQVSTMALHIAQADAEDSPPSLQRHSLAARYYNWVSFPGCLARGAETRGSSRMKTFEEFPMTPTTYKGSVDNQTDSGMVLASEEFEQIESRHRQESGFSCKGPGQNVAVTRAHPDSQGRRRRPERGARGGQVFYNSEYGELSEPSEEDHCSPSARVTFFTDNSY
# [58] = Oral bioavailability in Sprague-Dawley rat at 5 mg/kg; type: ADME, organism-based; conditions: in vivo
# [59] = Cmax in VEGF soaked disk implanted Sprague-Dawley rat; type: ADME, organism-based; conditions: in vivo
smiles,measurement,setting,value
COc1cc2nccc(Oc3ccc4c(C(=O)Nc5ccc(Cl)cc5)cccc4c3)c2cc1OC.CS(=O)(=O)O,Vd,[1],6.7 L/kg
same,clearance,[2],3.33 mL/min/kg
same,Vd,[3],4.3 L/kg
same,bioavailability,[4],72%
same,MRT,[5],22 h
same,bioavailability,[6],24%
same,Vd,[7],4.8 L/kg
same,half-life,[8],56 h
same,bioavailability,[9],62%
same,MRT,[10],66 h
same,MRT,[11],23 h
same,clearance,[12],1.67 mL/min/kg
same,half-life,[13],48 h
same,clearance,[14],3.33 mL/min/kg
same,half-life,[15],17 h
COc1cc2nccc(Oc3ccc4c(C(=O)Nc5ccc(Cl)cc5)cccc4c3)c2cc1OC,Cmax,[16],3900 nM
same,IC50,[17],0.5 nM
same,fraction unbound,[18],0.014
same,ED50,[19],0.1 mg/kg
same,concentration,[20],1500 nM
same,inhibition in vivo at 3 mg/kg,[21],74%
same,IC50,[22],> 50000 nM
same,Cmax,[23],500 nM
same,IC50,[24],20 nM
same,fraction unbound,[25],0.02
same,MRT,[26],31 h
same,IC50,[27],> 50000 nM
same,concentration,[28],490 nM
same,AUC(0-t) at 24 h,[29],48.4 µM·h
same,Cmax,[30],420 ng/mL
same,microsomal CLint,[31],30 µL/min/mg
same,IC50,[32],> 1100 nM
same,IC50,[33],40 nM
same,AUC(0-t) at 24 h,[34],5250 ng·h/mL
same,Stability,[35],< 100 pM/mg/h
same,concentration,[36],160 nM
same,AUC(0-t) at 24 h,[37],6.2 µM·h
same,microsomal CLint,[38],50 µL/min/mg
same,concentration,[39],4000 nM
same,IC50,[40],> 1000 nM
same,half-life,[41],24 h
same,AUC,[42],1.3 µM·h
same,IC50,[43],25 nM
same,IC50,[44],38 nM
same,IC50,[45],> 1000 nM
same,Cmax,[46],2200 nM
same,IC50,[47],> 20000 nM
same,Vd,[48],7.3 L/kg
same,fraction unbound,[49],0.026
same,clearance,[50],3.33 mL/min/kg
same,IC50,[51],> 1140 nM
same,AUC(0-t) at 24 h,[52],24.1 µM·h
same,IC50,[53],> 20000 nM
same,concentration,[54],10300 nM
same,IC50,[55],1100 nM
same,IC50,[56],25 nM
same,IC50,[57],2 nM
same,bioavailability,[58],21%
same,Cmax,[59],200 nM
